Results reported in the Deep4Chem optical property database.
Blank lines part the entries; values can stand above or below the compound they belong to.

Test: solvent given as SMILES

SMILES: F[B-]1(F)OC(c2ccc(C(F)(F)F)cc2)=Cc2ccc3ccccc3[n+]21
absorption maximum (in ClC(Cl)Cl): 424 nm

SMILES: CCCCCCCCCCCCN1C(=O)c2ccc3c4ccc5c6c(ccc(c7ccc(c2c37)C1=O)c64)C(=O)NC5=O
absorption maximum (in CN(C)C=O): 522 nm

SMILES: Clc1ccccc1N1c2c(sc3ccccc23)Sc2sc3ccccc3c21
absorption maximum (in ClCCl): 400 nm

SMILES: Cc1ccc(-c2cc(/C=C/c3ccc(N(c4ccccc4)c4ccccc4)cc3)c(-c3ccc(C)cc3)cc2/C=C/c2ccc(N(c3ccccc3)c3ccccc3)cc2)cc1
absorption maximum (in ClCCl): 410 nm

SMILES: COC(=O)c1[nH]c(-c2ccc(Br)cc2)c2nnc3ccc(OC)cc3c12
absorption maximum (in ClCCl): 395 nm

SMILES: c1ccc(-c2cc(-c3ccc4ccc5c(-c6ccnc(-c7ccccn7)c6)ccc6ccc3c4c65)ccn2)nc1
absorption maximum (in C1CCOC1): 362 nm | absorption maximum (in CC#N): 360 nm | absorption maximum (in CCC#N): 360 nm | absorption maximum (in CCCC#N): 360 nm | absorption maximum (in CCCCCC): 361 nm | absorption maximum (in CCCO): 361 nm | absorption maximum (in CCO): 361 nm | absorption maximum (in CO): 363 nm | absorption maximum (in Cc1ccccc1): 362 nm

SMILES: CN(C)c1ccc(/C=C/c2cc(/C=C/c3ccc(N(C)C)cc3)nc(/C=C/c3ccc(N(C)C)cc3)n2)cc1
absorption maximum (in ClCCl): 402 nm

SMILES: Nc1cc(N)cc(-c2nc3ccccc3s2)c1
absorption maximum (in C1CCCCC1): 360 nm | absorption maximum (in C1COCCO1): 360 nm | absorption maximum (in CC#N): 360 nm | absorption maximum (in CC(C)O): 360 nm | absorption maximum (in CCOC(C)=O): 360 nm | absorption maximum (in CCOCC): 360 nm | absorption maximum (in CO): 360 nm | absorption maximum (in O): 360 nm

SMILES: CCCCCCN(CCCCCC)c1ccc(C#Cc2ccc(N(CCCCCC)CCCCCC)cc2)cc1
absorption maximum (in CO): 380 nm | absorption maximum (in ClCCl): 387 nm

SMILES: CCCCN1\C(=C/C=C/C=C/C2=[N+](CCCC)c3ccc4cc(Br)ccc4c3C2(C)C)C(C)(C)c2c1ccc1cc(Br)ccc21
absorption maximum (in C1CCOC1): 685 nm | absorption maximum (in CC#N): 682 nm | absorption maximum (in CC(C)=O): 685 nm | absorption maximum (in CCO): 688 nm | absorption maximum (in CN(C)C=O): 689 nm | absorption maximum (in CO): 683 nm | absorption maximum (in CS(C)=O): 692 nm | absorption maximum (in ClCCl): 699 nm

SMILES: CC/[NH+]=c1\cc2oc3cc(NCCC(=O)NC(C(=O)OC)C(C)C)c4ccccc4c3nc-2cc1C (stereo not drawn)
absorption maximum (in CCO): 590 nm | absorption maximum (in O): 580 nm

SMILES: Cc1cc2c3ccccc3n(C)c2c2c1c1ccccc1n2C
absorption maximum (in ClCCl): 329 nm

SMILES: c1ccc2c(c1)-c1ccccc1C21c2ccccc2-c2oc3c(c21)C1(c2ccccc2-c2ccccc21)c1ccccc1-3
absorption maximum (in C1CCOC1): 367 nm

SMILES: c1cc2ccc3cccc4ccc(c1)c2c34
absorption maximum (in C1CCCCC1): 334 nm | absorption maximum (in CC#N): 335 nm | absorption maximum (in CCCCCC): 330 nm | absorption maximum (in CCO): 334 nm | absorption maximum (in CCOC(C)=O): 335 nm | absorption maximum (in CO): 330 nm | absorption maximum (in Cc1ccccc1): 362 nm | absorption maximum (in ClC(Cl)Cl): 337 nm | absorption maximum (in ClCCl): 333 nm

SMILES: c1ccc2c3c(ccc2c1)-c1cccc2cc4ccccc4c-3c12
absorption maximum (in CCCCCCC): 446 nm

SMILES: CC1(C)c2ccccc2N(c2ccc(-c3ccc(C#N)c(C#N)n3)cc2)c2ccccc21
absorption maximum (in Cc1ccccc1): 404 nm

SMILES: c1ccc2c(c1)c1ccccc1n2-c1ccc(-c2ccc(-n3c4ccccc4c4ccccc43)nc2-n2c3ccccc3c3ccccc32)nn1
absorption maximum (in CC#N): 335 nm | absorption maximum (in Cc1ccccc1): 346 nm | absorption maximum (in ClCCl): 337 nm

SMILES: COc1ccc2cc(C#Cc3ccc([N+](=O)[O-])cc3)ccc2c1
absorption maximum (in C1CCOC1): 356 nm | absorption maximum (in ClC(Cl)Cl): 360 nm | absorption maximum (in ClCCl): 356 nm

SMILES: COc1ccc2cc([C@H](C)C(=O)O)ccc2c1
absorption maximum (in CC#N): 332.4 nm | absorption maximum (in CCCCO): 333.3 nm | absorption maximum (in CCO): 332.2 nm | absorption maximum (in CO): 332.4 nm | absorption maximum (in ClCCl): 333.6 nm | absorption maximum (in O): 331.2 nm

SMILES: N#Cc1cc(N2c3ccccc3Sc3ccccc32)c(N2c3ccccc3Sc3ccccc32)cc1C#N
absorption maximum (in c1ccc2c(c1)c1ccccc1n2-c1ccc(-c2ccc(-n3c4ccccc4c4ccccc43)cc2)cc1): 551 nm

SMILES: N#Cc1ccc(/C=C/C(F)(F)F)c(N)c1
absorption maximum (in C1CCOC1): 367 nm

SMILES: CN(C)c1ccc(/C=C/c2nc3c(ccc4ccccc43)s2)cc1
absorption maximum (in C1CCCCC1): 402 nm | absorption maximum (in CC#N): 409 nm

SMILES: CCCCN1/C(=C/C=C/C2=[N+](C)c3ccccc3C2(C)C)C(C)(C)c2cc(OC)ccc21
absorption maximum (in CS(C)=O): 566 nm

SMILES: CCCCCCc1ccc2c3c(ccc2c1)O[B-](c1ccccc1)(c1ccccc1)[N+](c1cc([N+]2=Cc4c(ccc5cc(CCCCCC)ccc45)O[B-]2(c2ccccc2)c2ccccc2)cc([N+]2=Cc4c(ccc5cc(CCCCCC)ccc45)O[B-]2(c2ccccc2)c2ccccc2)c1)=C3
absorption maximum (in C1CCOC1): 445 nm | absorption maximum (in CC#N): 440 nm | absorption maximum (in Cc1ccccc1): 453 nm | absorption maximum (in ClCCl): 450 nm

SMILES: CCCCCCCCCCCCC(CCCCCCCCCC)Cn1c2cc(/C=C/C=C(C#N)C#N)c3cccc4c5cccc6c(/C=C/C=C(C#N)C#N)cc1c(c65)c2c34 (stereo not drawn)
absorption maximum (in C1CCCCC1): 638 nm | absorption maximum (in CC#N): 599 nm | absorption maximum (in Cc1ccccc1): 597 nm | absorption maximum (in ClCCl): 611 nm

SMILES: Cc1ccc(C(=O)/C=C2\C(=O)Nc3ccccc32)cc1C
absorption maximum (in C1CCCCC1): 335 nm | absorption maximum (in C1COCCO1): 335 nm | absorption maximum (in CCCCCC): 333 nm | absorption maximum (in CCOC(C)=O): 335 nm | absorption maximum (in CN(C)C=O): 338 nm | absorption maximum (in ClCCl): 336 nm | absorption maximum (in O): 338 nm

SMILES: CN(C)c1ccc(/C=C/C=C2\CC/C(=C\C=C\c3ccc(N(C)C)cc3)C2=O)cc1
absorption maximum (in C1CCCCC1): 480 nm | absorption maximum (in CC#N): 490 nm | absorption maximum (in CC(C)=O): 493 nm | absorption maximum (in CC(C)O): 515 nm | absorption maximum (in CCCCCC): 478 nm | absorption maximum (in CCCCO): 524 nm | absorption maximum (in CCCO): 515 nm | absorption maximum (in CCO): 510 nm | absorption maximum (in CCOC(C)=O): 480 nm | absorption maximum (in CCOCC): 475 nm | absorption maximum (in CN(C)C=O): 507 nm | absorption maximum (in CO): 523 nm | absorption maximum (in CS(C)=O): 512 nm | absorption maximum (in Cc1ccccc1): 495 nm | absorption maximum (in ClC(Cl)(Cl)Cl): 465 nm | absorption maximum (in ClCCl): 503 nm | absorption maximum (in OCC(F)(F)F): 534 nm | absorption maximum (in S=C=S): 480 nm | absorption maximum (in c1ccccc1): 475 nm | absorption maximum (in c1ccncc1): 507 nm

SMILES: FC(F)(F)c1ccccc1B1c2ccccc2N(c2ccccc2)c2ccccc21
absorption maximum (in ClCCl): 389 nm

SMILES: C(#Cc1ccccc1)C(C#Cc1ccccc1)=Cc1ccc(-c2ccc(C=C(C#Cc3ccccc3)C#Cc3ccccc3)cc2)cc1
absorption maximum (in ClC(Cl)Cl): 394 nm

SMILES: F[B-]1(F)Oc2ccccc2-c2nc(-c3ccccc3)c3cc(Cl)ccc3[n+]21
absorption maximum (in Cc1ccccc1): 395 nm

SMILES: Cc1cc2ccccc2c2c1c1ccccc1n2-c1ccc(C#N)cc1
absorption maximum (in ClCCl): 303 nm

SMILES: CC1(C)CC(=O)C2=C(C1)Oc1ccc3cc(O)ccc3c1C2c1ccccn1 (stereo not drawn)
absorption maximum (in C1CCOC1): 349 nm | absorption maximum (in C1COCCO1): 347 nm | absorption maximum (in CC#N): 349 nm | absorption maximum (in CCCCCCC): 347 nm | absorption maximum (in CCO): 349 nm | absorption maximum (in CO): 349 nm | absorption maximum (in O): 347 nm

SMILES: N#Cc1cccc(C#N)c1-c1ccc(N2c3ccccc3C3(c4ccccc42)c2ccccc2N(c2ccc(-c4c(C#N)cccc4C#N)cc2)c2ccccc23)cc1
absorption maximum (in Cc1ccccc1): 371.03 nm

SMILES: COc1ccc2c(c1)-c1ccccc1C2=O
absorption maximum (in C1CCCCC1): 365 nm | absorption maximum (in CC#N): 379 nm | absorption maximum (in CCO): 387 nm

Continued, values first:

absorption maximum (in CC#N): 421 nm
SMILES: CCN(CC)c1ccc2cc(/C=C/c3ccccc3)c(=O)oc2c1

absorption maximum (in C1CCCCC1): 342 nm | absorption maximum (in C1CCOC1): 338 nm | absorption maximum (in CC#N): 336 nm | absorption maximum (in CCOC(C)=O): 339 nm | absorption maximum (in CS(C)=O): 334 nm | absorption maximum (in ClC(Cl)Cl): 340 nm
SMILES: N#Cc1cc2ccccc2oc1=O

absorption maximum (in CCO): 362 nm
SMILES: Cc1nc2cc3c4c(cccc4c2o1)C(=O)OC3=O

absorption maximum (in ClCCl): 312 nm
SMILES: CCCCCCn1c2c(c3ccccc31)-c1c(c3ccccc3n1CCCCCC)-c1c(c3ccccc3n1CCCCCC)-c1c-2c2ccccc2n1CCCCCC

absorption maximum (in C1CCOC1): 416 nm
SMILES: CCN(CC)c1ccc(-c2nc3c4ccccc4n(C)c3nc2-c2ccc(B(c3c(C)cc(C)cc3C)c3c(C)cc(C)cc3C)cc2)cc1

absorption maximum (in ClCCl): 355 nm
SMILES: O=c1c2ccccc2nc2ccc(-c3ccc(N(c4ccccc4)c4ccccc4)cc3)cn12

absorption maximum (in ClCCl): 383 nm
SMILES: CCOC(=O)c1ccc(C2CC(c3cccc4ccccc34)=NN2c2ccc(OC)cc2)cc1 (stereo not drawn)

absorption maximum (in C1CCCCC1): 375 nm | absorption maximum (in CC#N): 369 nm
SMILES: FC(F)(F)c1ccc(/C=C/c2nc3c(ccc4ccccc43)s2)cc1

absorption maximum (in ClCCl): 539 nm
SMILES: COc1ccc(-c2c3cc4cc(C)sc4cc3c(C#Cc3ccccc3)c3cc4cc(C)sc4cc23)cc1

absorption maximum (in C1CCCCC1): 523.5 nm | absorption maximum (in CC#N): 516.5 nm | absorption maximum (in CCO): 518 nm | absorption maximum (in CCOC(C)=O): 517 nm | absorption maximum (in CO): 516.5 nm | absorption maximum (in OCC(F)(F)F): 513 nm
SMILES: Cc1ccc(C2=C3C=C(I)C=[N+]3[B-](F)(F)n3cccc32)cc1

absorption maximum (in ClCCl): 447 nm
SMILES: Cc1ccccc1-c1c2cccc3c(-c4ccc(C(C)(C)C)cc4)cc4c(-c5ccccc5C)c5cccc6c(-c7ccc(C(C)(C)C)cc7)cc1c(c65)c4c32

absorption maximum (in C1CCCCC1): 347 nm
SMILES: C[Si](C)(C)C#Cc1ccc(C#C[Si](C)(C)C)c2ccccc12

absorption maximum (in ClCCl): 615 nm
SMILES: CC(C)[Si](C#Cc1c2cc3ccccc3cc2c(C#C[Si](C(C)C)(C(C)C)C(C)C)c2nc3c4ccccc4c(=O)c4ccccc4c3nc12)(C(C)C)C(C)C

absorption maximum (in CCCCCC): 428 nm | absorption maximum (in CO): 439 nm
SMILES: O=C1C=C(Nc2cccc(F)c2F)C(=O)c2ccccc21

absorption maximum (in C1CCOC1): 411 nm | absorption maximum (in CC#N): 412 nm | absorption maximum (in CCO): 410 nm | absorption maximum (in CS(C)=O): 410 nm | absorption maximum (in ClCCl): 413 nm
SMILES: c1ccc2c(c1)c1ccccc1c1[nH]c(-c3ccc(-c4nc5c6ccccc6c6ccccc6c5[nH]4)cc3)nc21

absorption maximum (in ClCCl): 336 nm
SMILES: CC(C)(C)NC(=O)c1ccc(-c2ccccc2)c2ccc3c4ccccc4c4ccccc4c3c12

absorption maximum (in ClCCl): 400 nm
SMILES: C(=C\c1ncc2ccccc2n1)/c1ccc(N(c2ccccc2)c2ccccc2)cc1
